Measurements reported in patent US6818767B2, “Quinoline derivatives” (Hoffmann-La Roche Inc., priority 2001, dated 2004).

Target: T1, mouse NPY5-receptor (mNPY5) (Mus musculus, UniProt O70342)
T1 construct: The full-length cDNA encoding the mouse NPY5 (mNPY5) receptor was amplified from mouse brain cDNA; expressed in transfected cells; membrane preparation
T1 sequence (O70342 1-466): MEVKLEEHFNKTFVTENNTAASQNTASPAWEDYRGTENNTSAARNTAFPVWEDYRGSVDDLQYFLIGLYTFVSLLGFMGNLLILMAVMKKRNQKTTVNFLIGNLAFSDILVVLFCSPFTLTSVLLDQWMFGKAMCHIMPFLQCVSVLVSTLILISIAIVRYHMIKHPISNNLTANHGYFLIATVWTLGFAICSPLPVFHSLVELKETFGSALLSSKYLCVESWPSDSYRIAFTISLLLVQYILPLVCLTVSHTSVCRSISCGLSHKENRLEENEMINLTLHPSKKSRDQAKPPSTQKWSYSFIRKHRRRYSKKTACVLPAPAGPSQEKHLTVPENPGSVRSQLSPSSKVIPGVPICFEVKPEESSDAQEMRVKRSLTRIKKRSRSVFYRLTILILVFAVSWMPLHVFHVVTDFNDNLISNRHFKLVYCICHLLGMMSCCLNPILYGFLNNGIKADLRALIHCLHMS
Assay: Radioligand competition binding
Conditions: displacement of 100 pM [125I]labelled peptide YY, membranes of HEK293 cells expressing recombinant mNPY5, 1 h at 22° C.; read-out: NPY5-R (mouse) IC50
Excerpt: The full-length cDNA encoding the mouse NPY5 (mNPY5) receptor was amplified from mouse brain cDNA using specific primers, designed based on the published sequence, and Pfu DNA-Polymerase (Stratagene). The amplification product was subcloned into the mammalian expression vector pcDNA3 using Eco RI and XhoI restriction sites. Positive clones were sequenced and one clone, encoding the published sequence was selected for generation of stable cell clones.
Human embryonic kidney 293 (HEK293) cells were transfected with 10 μg mNPY5 DNA using the lipofectamine reagent (Gibco BRL) according to the manufacturer's instruction. Two days after transfection, geneticin selection (1 mg/ml) was initiated and several stable clones were isolated. One clone was further used for pharmacological characterization.
Human embryonic kidney 293 cells (HEK293), expressing recombinant mouse NPY5-receptor (mNPY5) were broken by three freeze/thawing cycles in hypotonic Tris buffer (5 mM, pH 7.4, 1 mM MgCl2), homogenized and centrifuged at 72,000×g for 15 min. The pellet was washed twice with 75 mM Tris buffer, pH 7.4, containing 25 mM MgCl2 and 250 mM sucrose, 0.1 mM phenylmethylsulfonylfluoride and 0.1 mM 1,10-pheneanthrolin, resuspended in the same buffer and stored in aliquots at −80° C. Protein was determined according to the method of Lowry using bovine serum albumine (BSA) as a standard. […]

## CCCCc1cc2c(N3CCCC3)ccnc2cc1O [Example 34, 6-butyl-4-pyrrolidin-1-yl-quinolin-7-ol]
  IC50: 9.9 nM

## Cc1cc(N2CCCC2)c2ccc(OCC3CC3)cc2n1 [Example 5, 7-cyclopropylmethoxy-2-methyl-4-pyrrolidin-1-yl-quinoline]
  IC50: 27 nM
